Reference: patent publication US6376502B1, “Osteoporosis compounds” (priority 1997, dated 2002)

Experiments:
[1] = test system: Bone Morphogenetic Protein 7 (BMP-7) expression in 293S cells transfected with EP2; assay: Kidney regeneration assay: BMP-7 expression by Northern blot in EP2 293S cells; type: cell-based, human; conditions: 10^-6M, RNA at 8, 16 and 24 hours, time dependent
Procedure: (§1) 293S and EP2 293S cells are grown in Dulbecco's Modified Egale medium (DMEM, Gibco, BRL; Gaithersburg, Md.). […] Cells are harvested and RNA is extracted at 8, 16 and 24 hours. Northern blot analysis of total ([…]) is carried out by probing the blots with ^32P-labeled BMP-7 probe. The blots are normalized for RNA loading by hybridization with ^32P-labeled 18s ribosomal RNA probe. […] Given the known role of BMP-7 in kidney regeneration and the ability of an prostaglandin agonist to induce BMP-7 expression in 293S kidney cells in a time and receptor specific manner indicates a role for prostaglandin agonist in kidney regeneration.

[2] = test system: Bone Morphogenetic Protein 7 (BMP-7) expression in wild type 293S cells; assay: Kidney regeneration assay: BMP-7 expression by Northern blot in wild type 293S cells; type: cell-based, human; conditions: parental 293S cell line, 10^-6M, RNA at 8, 16 and 24 hours
Procedure: as §1

CCCCC[C@H](O)/C=C/[C@H]1[C@H](O)CC(=O)[C@@H]1C/C=C\CCCC(=O)O [PGE2, Prostaglandin E2] was tested, and the “induction of BMP-7 expression” value [1] was “induce the expression of BMP-7” and the “induction of BMP-7 expression” value [2] was “generally not observed”.
